Experimental data taken from article PMC9521028, “Lengthening the Guanidine–Aryl Linker of Phenylpyrimidinylguanidines Increases Their Potency as Inhibitors of FOXO3-Induced Gene Transcription” (ACS Omega, 2022).
In brackets after ≈: the same amount, converted by molar mass. Entries after “also recorded” stand apart in the source; their conditions may differ.

Tests used:
[1] = Estimation of compound solubility in water (saturated solution, UV-vis); type: physicochemical; settings: for solubility at 48 h: aqueous buffer, thermodynamic from solid, 20 mM phosphate (pH 6.5) and 50 mM KCl buffer at 23 °C
Description: To estimate the solubility, we prepared saturated solutions of the compounds by adding 5 mg of each selected compound to 700 μL of 20 mM phosphate buffer (pH 6.5) containing 50 mM KCl. After 48 h of gentle agitation at room temperature (RT), the solutions were spun down, and the supernatant was filtered through 0.2 μm of SPARTAN 13/0.2 RC filter units (Merck KgaA, Darmstadt, Germany) and diluted 100–200× in the same phosphate buffer. The diluted solutions were transferred into the quartz cuvette, recording UV–vis absorption spectra in the range from 200 to 600 nm on a UV-1800 UV/visible scanning spectrophotometer (Shimadzu, Kyoto, Japan) at room temperature. The compound concentrations were estimated by the single point calibration using the absorption at wavelengths higher than 240 nm outside of DMSO absorption of 2000× diluted 50 mM DMSO-dissolved stock solution in phosphate buffer.

[2] = system: FOXO3-induced apoptotic cell death in SH-EP/FOXO3 neuroblastoma cells; assay: Resazurin early cell death evaluation assay; type: cell-based; settings: for IC50: Neuroblastoma cell, 100 nM 4OHT, 24 h, approximate, toxicity prevented accurate determination, read-out: IC50, inhibition of FOXO3-induced cell death; for IC50 / concentration above which the compound is toxic (spontaneous cell death): SH-EP/FOXO3 cells; for fold lower IC50 than that of 5ca: resazurin assay, ratio to 5ca IC50 of ∼8 μM
Description: Moreover, we also attempted to determine the IC50 values of 5ci, 5cj, and 5db using a resazurin early cell death evaluation assay in cells expressing a conditional FOXO3 allele that triggers apoptotic cell death upon activation.
Neuroblastoma cells SH-EP/FOXO3 were seeded into 96-well plates and treated with concentrations 0.05, 0.1, 0.2, 0.39, 0.78, 1.56, 3.125, 6.25, 12.5, 18.75, and 25 μM of 5ca and its derivatives 30 min before activating ectopic FOXO3 by 100 nM 4OHT. For 5ca derivatives, concentrations above 3.125 μM had to be excluded from the analysis due to spontaneous cell death induction. Resazurin salt (Sigma-Aldrich s.r.o., St. Louis, Missouri) was diluted to a final concentration of 0.01% (wt/vol), and 20 μL of this dilution was added to 200 μL of the cell culture in each well 24 h after FOXO3 activation. Resazurin is reduced in viable cells to red-fluorescent resoflurin, which was quantified in a Hidex Chameleon—Multilabel Microplate Reader (Hidex, Turku, Finland) at filter settings 544 nm Ex/616 nm Em.

[3] = molecular target: T1, recombinant DNA-binding domain of human FOXO3 (residues 156–269, FOXO3-DBD) (Homo sapiens, UniProt O43524); assay: Fluorescence polarization (FP) assay of FOXO3-DBD binding to FAM-labeled IRE dsDNA; settings: compound 1 μM; 125 nM FOXO3-DBD, 25 nM FAM-dsDNA
T1 construct: DNA encoding human FOXO3-DBD (residues 156–269); GST (N, cleaved yes); made in house; host or cells: E. coli BL21(DE3)
T1 sequence (O43524 156-269): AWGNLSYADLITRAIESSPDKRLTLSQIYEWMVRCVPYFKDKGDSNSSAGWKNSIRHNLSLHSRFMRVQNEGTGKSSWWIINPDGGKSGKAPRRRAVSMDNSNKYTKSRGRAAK
Description: The FOXO3 inhibition potency of the phenylpyrimidinylguanidine derivatives was first examined in a fluorescence polarization (FP) assay using the recombinant DNA-binding domain of human FOXO3 (residues 156–269, denoted as FOXO3-DBD) and FAM-labeled dsDNA containing the insulin-response element (IRE) consensus motif (Figure S1).
The final concentration of DMSO in all mixtures was adjusted to 5% (v/v). Positive (only assay buffer and FAM-labeled oligonucleotide) and negative (FOXO3-DBD and FAM-labeled oligonucleotide) controls were analyzed on each plate. Milli polarization values (mP) were measured at an excitation wavelength of 485 nm and an emission wavelength of 530 nm.

[4] = system: FOXO3; parameters: method as in PMID 31591479, PMID 31789593; settings: inhibit the transcriptional program of FOXO3; cited from earlier work
[5] = system: endogenous DEPP1 and actin promoters in SH-EP cells; assay: Toxicity control: endogenous DEPP1 and actin promoter luciferase reporters; type: cell-based; settings: for effect on endogenous DEPP1 and actin promoters (toxicity markers): 0.78 μM, SH-EP cells
Description: (§1) The ability of these compounds to inhibit FOXO3 transcriptional activity was further examined by assessing their effect on FOXO3 binding to the promoter region of decidual protein induced by progesterone 1 (DEPP1) after transfecting a DEPP1-luciferase reporter plasmid into SH-EP neuroblastoma cells stably expressing a 4-hydroxy-tamoxifen (4OHT)-regulated FOXO3(A3)ERtm transgene. […] In parallel, the toxicity of the compounds was tested by assessing their effect on endogenous DEPP1 and actin promoters in SH-EP cells.
For this purpose, 2 × 10^6 SH-EP cells were transfected with either a DEPP1-LUC-reporter plasmid or an actin-LUC reporter plasmid using JetPrime reagent (Polyplus, Berkeley). Actin-LUC was constructed by inserting a 1.3 kb fragment of the chicken β actin promoter into pGL3-luc reporter vector (Promega, Madison). After 24 h of transfection, the cells were seeded into 24-well plates. After another 24 h, the cells were pretreated with indicated concentrations of compound for 3.5 h. Firefly-luciferase was analyzed using the Luciferase Assay System (Promega, Madison). Luminescence intensity was measured in a Hidex Chameleon—Multilabel Microplate Reader (Hidex, Turku, Finland).

[6] = system: FOXO3 binding to the promoter region of DEPP1 in SH-EP/FOXO3 cells; assay: DEPP1-luciferase reporter assay of FOXO3 transcriptional activity; type: cell-based; settings: for potency in blocking FOXO3 binding to the promoter region of DEPP1: 25 and 12.5 μM compound; for potency in blocking FOXO3 binding to the promoter region of DEPP1, compared with 5ca: initial screen, 50 μM compound; for efficiency of blocking FOXO3 binding to the promoter region of DEPP1: lower concentrations, down to 0.78 μM; for inhibition of FOXO3-mediated transcription: lowest concentration tested, 0.78 μM; for inhibitory potency on target gene activation by FOXO3 (in words): summary of the reporter data, Figures 2, S2, S3
Description: as §1
Transcriptional activation of the DEPP1 promoter by conditional FOXO3 was assessed after transfection of a DEPP1-luciferase reporter plasmid pGS c10orf10 Prom wt (DEPP1-LUC)[20] into SH-EP/FOXO3 cells using the JetPrime reagent (Polyplus, Berkeley). After 24 h of transfection, mTFP fluorescent protein expression from a cotransfected expression vector was assessed by live cell fluorescence microscopy to verify equal transfection rates before seeding cells into 24-well plates. After 48 h of transfection, the cells were pretreated with indicated concentrations of each compound (30 min) before adding 100 nM 4-hydroxy-tamoxifen (4OHT) for 3 h to activate ectopic FOXO3. Firefly-luciferase was analyzed using the Luciferase Assay System (Promega, Madison). Luminescence intensity was measured in a Hidex Chameleon—Multilabel Microplate Reader (Hidex, Turku, Finland).

[7] = molecular target: T2, FOXO3-DBD (Homo sapiens, UniProt O43524); assay: NMR (1H STD and 1H-15N HSQC titration) of compound binding to FOXO3-DBD; settings: 15 μM FOXO3-DBD, 1 mM compound, pH 6.5, 298 K
T2 construct: DNA encoding human FOXO3-DBD (residues 156–269); GST (N, cleaved yes); made in house; host or cells: E. coli BL21(DE3)
T2 sequence (O43524 156-269): as above
Description: STD experiment was performed at 298 K on a Bruker Avance III HD 850 MHz spectrometer (Bruker, Billerica, Massachusetts) equipped with a ^13C/^1H/^15N cryoprobe. The 550 μL sample contained 15 μM FOXO3-DBD and 1 mM 5cj in 20 mM phosphate buffer (pH 6.5) supplemented by 50 mM KCl and 10% ^2H2O. ^1H STD NMR was performed using a standard “stddiffesgp” pulse sequence with excitation sculpting and pulse-field gradients for water suppression. On-resonance irradiation was done at −0.54 ppm and off-resonance irradiation at 30 ppm, using a 50 ms shaped Eburp2.1000 pulse of power 40 dB for a saturation time of 3 s. The difference spectra were obtained by subtracting the on-resonance spectrum from the off-resonance spectrum. The spectra were analyzed using TopSpin software (v3.6).
2D ^1H–^15N HSQC spectra were acquired on both Bruker Avance III HD 850 MHz and Bruker Avance III 600 MHz (Bruker, Billerica, Massachusetts) spectrometers equipped with a ^13C/^1H/^15N cryoprobe. All HSQC experiments were measured at 298 K in Shigemi NMR tubes (Shigemi Co., Ltd., Tokyo, Japan) containing 350 μL of sample in 100 mM phosphate buffer (pH 6.5) supplemented with 50 mM KCl and 10% ^2H2O. […] All spectra were processed in TopSpin software (v3.6) and evaluated in Sparky software (v3.1).[43] CSP values obtained from 2D ^1H–^15N HSQC experiments were calculated using the following formula[44] […]

CCCOc1ccc(NC(=N)Nc2nc(C)cc(C)n2)cc1 [5ca, 1-(4,6-Dimethylpyrimidin-2-yl)-3-(4-propoxyphenyl)guanidine]
solubility at 48 h [1]: 2000 µM (≈ 599 µg/mL)
IC50 [2]: ~8000 nM
concentration above which the compound is toxic (spontaneous cell death) [2]: higher than 25 μM
reduction of FOXO3-DBD binding to FAM-IRE dsDNA [3]: approximately 20%
concentration range of FOXO3 inhibition in cancer cells [4]: low micromolar range

Cc1cc(C)nc(NC(=N)NCc2cccc3ccccc23)n1 [5ci, 1-(4,6-Dimethylpyrimidin-2-yl)-3-(naphthalen-1-ylmethyl)guanidine]
solubility in water (in words) [1]: low solubility
solubility at 48 h [1]: 700 µM (≈ 214 µg/mL)
effect on endogenous DEPP1 and actin promoters (toxicity markers) [5]: without any effect
IC50 [2]: ~500 nM
concentration above which the compound is toxic (spontaneous cell death) [2]: higher than 4 μM
fold lower IC50 than that of 5ca [2]: 8–16 ×
potency in blocking FOXO3 binding to the promoter region of DEPP1 [6]: the most potent compounds
potency in blocking FOXO3 binding to the promoter region of DEPP1, compared with 5ca [6]: more potent than 5ca
efficiency of blocking FOXO3 binding to the promoter region of DEPP1 [6]: more efficiently than 5cg, 5da, and 5dc
inhibition of FOXO3-mediated transcription [6]: significantly inhibited
inhibitory potency on target gene activation by FOXO3 (in words) [6]: increased FOXO3 inhibition

Cc1cc(C)nc(NC(=N)NCCc2ccccc2)n1 [5cj, 1-(4,6-Dimethylpyrimidin-2-yl)-3-phenethylguanidine]
solubility at 48 h [1]: 13000 µM (≈ 3500 µg/mL)
effect on endogenous DEPP1 and actin promoters (toxicity markers) [5]: without any effect
IC50 [2]: ~1000 nM
concentration above which the compound is toxic (spontaneous cell death) [2]: higher than 4 μM
fold lower IC50 than that of 5ca [2]: 8–16 ×
1H STD NMR signals with FOXO3-DBD [7]: STD signals were detected
potency in blocking FOXO3 binding to the promoter region of DEPP1 [6]: the most potent compounds
efficiency of blocking FOXO3 binding to the promoter region of DEPP1 [6]: more efficiently than 5cg, 5da, and 5dc
inhibition of FOXO3-mediated transcription [6]: significantly inhibited
inhibitory potency on target gene activation by FOXO3 (in words) [6]: highest inhibitory potency

CCCOc1ccc(NC(=N)Nc2nc(C)cc(NCCc3ccccc3)n2)cc1 [5db, 1-(4-Methyl-6-(phenethylamino)pyrimidin-2-yl)-3-(4-propoxyphenyl)guanidine]
solubility in water (in words) [1]: low solubility; also recorded: very low solubility
solubility at 48 h [1]: 300 µM (≈ 121 µg/mL)
toxicity compared with other derivatives ([5]; higher concentrations, Figure 2): more toxic than 5ci and 5cj at higher concentrations
IC50 [2]: ~500 nM
concentration above which the compound is toxic (spontaneous cell death) [2]: higher than 4 μM
fold lower IC50 than that of 5ca [2]: 8–16 ×
potency in blocking FOXO3 binding to the promoter region of DEPP1 [6]: the most potent compounds
potency in blocking FOXO3 binding to the promoter region of DEPP1, compared with 5ca [6]: more potent than 5ca
efficiency of blocking FOXO3 binding to the promoter region of DEPP1 [6]: more efficiently than 5cg, 5da, and 5dc
inhibitory potency on target gene activation by FOXO3 (in words) [6]: strongest inhibitor

CC1(C)[C@@H](OC(=O)CCC(=O)O)CC[C@]2(C)[C@H]3C(=O)C=C4[C@@H]5C[C@@](C)(C(=O)O)CC[C@]5(C)CC[C@@]4(C)[C@]3(C)CC[C@@H]12 [carbenoxolone]
concentration range of FOXO3 inhibition in cancer cells [4]: low micromolar range

CCOc1cc(CC(=O)N[C@@H](CC(C)C)c2ccccc2N2CCCCC2)ccc1C(=O)O [repaglinide]
concentration range of FOXO3 inhibition in cancer cells [4]: low micromolar range
